These results are taken from patent publication US20100240709A1, “Sulfoximine Derivatives as p38 MAP Kinase Inhibitors” (priority 2005, published 2010).

Structures are written as SMILES.

For assay [1], the target named is p38 MAP kinase (Homo sapiens, UniProt Q16539). Briefly: p-38 MAPK Enzyme assay (in vitro ELISA, ATF-2 substrate). The assay is classed as biochemical. The note with it: ELISA detection of phosphorylated ATF-2. The source says:
The compounds were screened using an in vitro ELISA assay for p38 MAP kinase activity. Activated p38 MAP kinase during the course of its biological function phosphorylates its substrates. The assay was based on the detection of a phosphorylated p38 MAP kinase substrate using ATF-2 as the biological substrate. More the activity of the p38 MAP kinase inhibitor in the reaction mixture less will be the amount of active p38 MAP kinase available to phosphorylate ATF-2. So, lower OD value will indicate the higher inhibition of p38 MAP kinase by the specific p38 MAP kinase inhibitor. The quantitation of phosphorylated ATF-2 at varying concentrations of p38 MAP kinase inhibitor was used to determine the IC50 by fitting the results to a logistic dose-response program (Graphpad Prism, CA). IC50 was defined as the concentration of compound required to achieve 50% inhibition of p38 MAP kinase activity.
In general terms: An ELISA detects its analyte on a solid surface through an enzyme-linked reagent.

In assay [2] the test system is TNF α. Briefly: In vivo LPS induced TNF α inhibition in Balb/c mice. The note with it: 10 mg/kg orally, 30 minutes prior to i.v. LPS (50 μg/kg); blood 60 minutes after LPS. The protocol: Balb/c mice were kept for acclimatization in the observation room for two days before the experiment. On the day of the experiment, animals were weighed and the test compounds to be administered calculated at a 10 mg/kg body weight basis in a total volume of 2 ml. Control groups received vehicle alone while the treatment groups received the test compound, both given orally, 30 minutes prior to intravenous injection of LPS (50 μg/kg). Blood was collected 60 minutes after the LPS injection from retro orbital plexus, the serum separated & stored in deep freeze till the estimation of TNF by ELISA method.

In assay [3] the test system is TNF α. Briefly: Ex-vivo human whole blood, LPS-induced TNF-α by ELISA. The note with it: LPS 1 ng/ml; for inhibition at 10 µM / inhibition at 100 µM: Homo sapiens; for inhibition at 10 µM: Conc 10 μM. The assay is classed as cell-based. The protocol: (§1) Blood was collected by venous puncture from 3 different volunteers in separate heparinized (100 IU/ml) tubes and incubated in the presence of 10 μM and 100 μM of test compounds for 1 hr at 37° C. Following this LPS (1 ng/ml final concentration) was added and incubation continued for 5 hr. The reaction was terminated by placing the samples on ice for 10 min. The samples were then centrifuged, plasma separated and stored at −70° C. until the analysis of TNF-α and IL-1β by ELISA: […]

The subject of assay [4] is IL-1 β. The experiment in a line: Ex-vivo human whole blood, LPS-induced IL-1β by ELISA. The note with it: LPS 1 ng/ml; for inhibition at 100 µM / inhibition at 10 µM: Homo sapiens; for inhibition at 100 µM: Conc 100 μM. The assay is classed as cell-based. How it is done:
as §1

Chain of p38 MAP kinase (Q16539 whole entry): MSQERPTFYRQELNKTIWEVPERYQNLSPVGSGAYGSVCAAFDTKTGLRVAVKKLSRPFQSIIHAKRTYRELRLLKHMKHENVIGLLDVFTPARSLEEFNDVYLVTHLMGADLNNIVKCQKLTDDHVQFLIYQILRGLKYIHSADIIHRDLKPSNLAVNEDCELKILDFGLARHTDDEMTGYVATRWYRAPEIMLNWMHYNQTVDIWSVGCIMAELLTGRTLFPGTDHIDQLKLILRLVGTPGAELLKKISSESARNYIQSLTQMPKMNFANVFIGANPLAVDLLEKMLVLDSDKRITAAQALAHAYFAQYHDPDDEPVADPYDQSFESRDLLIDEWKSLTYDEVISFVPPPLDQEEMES

As to `CCc1nc(-c2ccc(F)cc2)c(-c2ccnc(N=S(C)(=O)c3ccc(F)cc3)c2)s1` (single isomer, unassigned; (-)) [Example 43, (−)-S-Methyl-S-4-fluoro-phenyl-N-[4-(2-ethyl-4-(4-fluoro-phenyl)-1,3-thiazol-5-yl)-pyridine-2-yl]-sulfoximine], the IC50 (as a rule, the concentration that gives 50% inhibition) in assay [1] came out at 71 µM. Further, the “In vivo LPS induced TNF α inhibition in Balb/c mice TNF α % inhibition (10 mg/kg)” value in assay [2] amounted to 49.4%. The “TNF α % inhibition” value in assay [3] (Conc 100 μM) is on record as 55.14%. Moreover, the inhibition – broadly, the percentage by which the read-out fell short of the control – at 10 µM in assay [3] came out at 17.8%. Also, the “IL-1 β % inhibition” value in assay [4] (Conc 10 μM) amounted to 24.62%. This molecule also registered an inhibition at 100 µM in assay [4] of 79.3%.
Take `CCc1nc(-c2ccccc2)c(-c2ccnc(N=S(C)(=O)c3cccc(C)c3)c2)s1` (stereo not drawn) [Example 24, S-Methyl-S-(3-Methylphenyl)-N-[4-{2-ethyl-4-phenyl-thiazol-5-yl}-pyridine]-sulfoximine]: the IC50 in assay [1] is 9.8 µM. In assay [2], the “In vivo LPS induced TNF α inhibition in Balb/c mice TNF α % inhibition (10 mg/kg)” value is reported as 39.3%. Further, the inhibition at 10 µM in assay [3] turned out to be 7.43%; in assay [4] (Conc 10 μM), 22.7%. Besides, the inhibition at 100 µM was determined as 69.7% in assay [3] (Conc 100 μM) and 81.2% in assay [4].
As to `CCc1nc(-c2ccc(F)c(F)c2)c(-c2ccnc(N=S(=O)(c3ccccc3)C(C)C)c2)s1` (stereo not drawn) [Example 60, S-Isopropyl-S-phenyl-N-{4-[2-ethyl-4-(3,4-difluorophenyl)-thiazol-5-yl]-pyridin-2-yl}-sulfoximine], in assay [1], the IC50 is 11.8 µM. The “In vivo LPS induced TNF α inhibition in Balb/c mice TNF α % inhibition (10 mg/kg)” value in assay [2] was 53.65%. In addition, the figures for the inhibition at 10 µM in assay [3] and in assay [4] (Conc 10 μM) were 36.7% and 35.2%, respectively. In addition, the inhibition at 100 µM in assay [3] (Conc 100 μM) was 81.7%; in assay [4], 84.5%.
